Results as given in patent US20020045641A1, “Multiple heteroatom containing heterocyclic ring compounds substituted with carboxylic acids and isosteres thereof” (priority 1998, published 2002).

Test system: dopaminergic neurons
Experiment: MPTP Model of Parkinson's Disease in Mice
Assay type: in vivo
Details: recovery of TH-stained dopaminergic neurons in striatum; MPTP 30 mg/kg i.p. 5 days; test compound 4 mg/kg s.c., concurrent dosing paradigm
Method: MPTP lesioning of dopaminergic neurons in mice is used as an animal model of Parkinson's Disease. Four week old male CD1 white mice are dosed i.p. with 30 mg/kg of MPTP for 5 days. Test compounds (4 mg/kg), or vehicle, are administered s.c. along with the MPTP for 5 days, as well as for an additional […] following cessation of MPTP treatment. At 18 days following MPTP treatment, the animals are sacrificed and the striata dissected and perfusion-fixed. Immunostaining is performed on saggital and coronal brain sections using anti-tyrosine hydroxylase […] to quantitate survival and recovery of dopaminergic neurons. In animals treated with MPTP and vehicle, a substantial loss of functional dopaminergic terminals is observed as compared to non-lesioned animals. Lesioned animals receiving test compounds show a significant recovery of TH-stained dopaminergic neurons. This model presents quantitation for the recovery of TH-positive dopaminergic neurons in the striatum of animals receiving the compounds of the present invention. […]
Percent striatal innervation density was quantitated in brain sections with an anti-tyrosine hydroxylase immunoglobulin, which is indicative of functional dopaminergic neurons. […]

`CCC(C)(C)C(=O)C(=O)N1CCS[C@H]1C(=O)O` [Compound L, (2S) -1-(3,3-dimethyl-1,2-dioxopentyl) -3-thiazolidine-2-carboxylic acid] was tested, and the “% Recovery” value was 14.0%.
